Measurements published in US11958876B2, “Carbacyclic phosphatidic acid compound” (OTSUKA CHEMICAL CO., LTD., priority 2019, dated 2024).
Structures can show the parent of a compound that is named as a salt. Each block holds one molecule with its values, some of them ahead of it.

Experiment: Stability test of 2ccPA crystals with added 2ccPA-L or 2ccPA-P (thermo-hygrostat, HPLC purity)
Format: physicochemical
Conditions: 40° C., humidity 60%
Protocol: 2ccPA-L of Example 2 or 2ccPA-P of Comparative Example 2 was added to 2ccPA, and a stability test was performed. • Control: 2ccPA crystal • Test substances: crystals obtained by adding 2ccPA-L or 2ccPA-P at each concentration to 2ccPA, followed by crystallization with methanol and acetone. (2) Execution Conditions
In the stability test, a thermo-hygrostat (Yamato Scientific Co., Ltd., IW223) was used. The stability test was performed while maintaining a set temperature of 40° C. and a set humidity of 60%.
The sample purity was confirmed in such a manner that about 10 mg of each sample was weighed every week and diluted with 2 mL of acetonitrile/water (volume ratio: 1/1), and the diluted solution was analyzed by high-performance liquid chromatography (Shimadzu LC20AD).
The results are shown in Table 1 (Example 2) and Table 2 (Comparative Example 2). Tables 1 and 2 focus only on 2ccPA, and show the residual rate thereof with the initial content of 2ccPA as 100 mass %.

- Stability test (1 week): residual rate of 2ccPA (control 2ccPA crystal, 0 mass % additive, 1 week, initial 2ccPA content as 100 mass %): 100%
- Stability test (2 weeks): residual rate of 2ccPA (control 2ccPA crystal, 0 mass % additive, 2 weeks, initial 2ccPA content as 100 mass %): 94.4%
SMILES: CCCCCCCC/C=C\CCCCCCCC(=O)OCC1COP(=O)(O)C1 (stereo not shown) [Example 2ccPA, sodium salt of 9-octadecenoic acid (9Z)-(2-hydroxy-2-oxo-2λ^5-1,2-oxaphosphoran-4-yl)methyl ester]

- Effect on purity of 2ccPA on storage (in words) (2ccPA-L coexisting with 2ccPA, storage 1 or 2 weeks): hardly reduced
SMILES: CCCCC/C=C\C/C=C\CCCCCCCC(=O)OCC1COP(=O)(O)C1 (stereo not shown) [Example 2ccPA-L]

- Effect on purity of 2ccPA on storage (in words) (0.15 mass % 2ccPA-P added to 2ccPA): the purity was reduced
SMILES: CCCCCCCCCCCCCCCC(=O)OCC1COP(=O)(O)C1 (stereo not shown) [Example 2ccPA-P]
